Source: patent US9493439B1, “Proteasome inhibitors” (UNIVERSITY OF KENTUCKY RESEARCH FOUNDATION, priority 2014, dated 2016)

Assays:
[1] = test system: proteasome in RPMI 8226 cell lysates; assay: Jump dilution reversibility assay; assay type: biochemical, human; details: preincubation of RPMI 8226 cell extracts for 30 min
Method: In further investigation of the mode of proteasome inhibition by G4-1, a dilution assay was performed following a procedure previously reported.^26 Briefly, RPMI 8226 cell lysates containing 30/4 g of total protein were incubated with G4-1 (10/4M) in 20S proteasome assay buffer for 30 min at room temperature. Lysates treated with G4-1 were subsequently transferred to a semimicrocuvette, and the baseline proteasome activity was determined by measuring the hydrolysis rate of Suc-LLVY-AMC. After establishment of the baseline, lysates treated with G4-1 were rapidly mixed with the 20S proteasome assay buffer, yielding 25-fold dilution. Following this 25-fold dilution from 10 to 0.4/4M G4-1, the hydrolysis of Suc-LLVY-AMC was again monitored over approximately 30 min.

[2] = test system: CT-L activity of proteasomes in RPMI 8226 cell extracts; assay: CT-L activity of proteasomes in RPMI 8226 cell extracts (Suc-LLVY-AMC); assay type: biochemical, human
Method: (§1) The inhibitory effects of G4-1 on the CT-L, C-L and T-L activities were measured by assessing the hydrolysis of the fluorogenic proteasome substrates Suc-LLVY-AMC, Z-LLE-AMC and Boc-LRR-AMC, respectively. […] FIG. 5C provides a reaction progress curve with 30 min preincubation of RPMI 8226 cell extracts and G4-1. […] FIG. 5E includes the potency of G4-1 in inducing cell death in BxPC-3 cell lines with acquired resistance to bortezomib or carfilzomib. FIG. 5F provides a comparison of IC50 values of BxPC-3 sublines resistant to carfilzomib or bortezomib to its parental cell lines.
(§2) In separate experiments, cytosolic extracts of RPMI-8226 or BxPC-3 cells were prepared according to the method of Kisselev and Goldberg^25 and used in place of purified proteasomes. The fluorescence from liberated AMC of the subunit-selective probe substrates was measured as described above.

[3] = test system: T-L activity of proteasomes in RPMI 8226 cell extracts; assay: T-L activity of proteasomes in RPMI 8226 cell extracts (Boc-LRR-AMC); assay type: biochemical, human
Method: as §1, §2

[4] = test system: BxPC-3 cell lines with acquired resistance to bortezomib or carfilzomib; assay: Cytotoxic effects, BxPC-3 sublines with acquired resistance to bortezomib or carfilzomib; assay type: cell-based, human
Excerpt: (§3) Human cancer cell lines BxPC-3, H358, H-23, LNCaP, Panc-1, and RPMI 8226 were obtained from the ATCC (American Type Culture Collection) and maintained in the ATCC-recommended media, DMEM or RPMI 1640 supplemented with 10% fetal bovine serum (from GIBCO, CeliGro, and Atlanta Biologicals). BxPC-3 cells with acquired resistance to bortezomib or carfilzomib were established by growing them in the presence of stepwise in-creasing concentrations of the respective drug over a period of approximately 6 months. In order to determine the extent of drug resistance, cytotoxicity assays were performed using BxPC-3 sublines adapted to 60 nM bortezomib and 200 nM carfilzomib, respectively.
(§4) The cytotoxic effects of G4 and its analogs were determined using CellTiter Glo assay or CellTiter 96 Aqueous One Solution Cell Proliferation assay (Promega). Adherent cells (Panc-1, LNCaP, BxPC-3, bortezomib- or carfilzomib-resistant BxPC-3 sublines) growing in log phase were plated at 7000-10000 cells per well. RPMI 8226 cells growing in suspension were collected by centrifugation and plated at 10 000 cells per well. […] After 72 h, the cell viability was determined using the assay protocol recommended by the manufacturers. The resulting signals were quantified using a Veritas microplate luminometer or a SpectraMax M5 microplate spectrophotometer (Molecular Devices).

[5] = test system: C-L activity of proteasomes in RPMI 8226 cell extracts; assay: C-L activity of proteasomes in RPMI 8226 cell extracts (Z-LLE-AMC); assay type: biochemical, human
Method: as §1, §2

[6] = test system: variety of cancer cell lines including LNCaP prostate cancer cells; assay: Cytotoxic effects, multiple cancer cell lines; assay type: cell-based, human
Excerpt: as §3, §4

LNCaP tumors [7] = assay: In vivo efficacy assay, LNCaP xenograft; details: 5 mg/kg intraperitoneally twice a week for 4 weeks
Method: (§6) Male nude mice bearing LNCaP tumors received intraperitoneal injections of either G4-1 (5 mg/kg), carfilzomib (5 mg/kg), or vehicle alone (8% DMSO in HP-β-cyclodextrin and sodium citrate) twice a week for 4 weeks (n=5 mice/group). Results are expressed as mean and standard deviation.
(§7) Six-week-old male BALB/c athymic nude mice (purchased from Orient Bio Inc., SungNam, Republic of Korea) were maintained in accordance with the National Institute of Toxicological Research of the Korea Food and Drug Administration guidelines as well as the regulations for the care and use of laboratory animals of the animal ethics committee of the Konyang University. LNCaP cells (2×10^6 cells/50 sL) were subcutaneously implanted into each animal. After the xenograft tumors had grown to a size of ‘−100 mm^3, mice (n=5/group) were dosed intraperitoneally twice a week for 4 weeks with G4-1 (5 mg/kg), carfilzomib (5 mg/kg), or vehicle only (8% DMSO in HP-Beta-CD and citrate). Tumor volumes (calculated using the following formula, (width)^2×length/2) and body weights were measured every 4 days during the experimental period. At the end of the experimental period (at day 30), mice were euthanized by cervical dislocation and tumors were isolated and weighed.

[8] = target: T1, CT-L activity of purified constitutive proteasome (Homo sapiens, UniProt P28074); assay: G4 analogs against the CT-L activity of purified proteasomes; assay type: biochemical
T1 construct: purchased R&D Systems
Method: Initially, purified 20S human proteasomes (CP and IP, R&D Systems) were used to assess the in vitro inhibition of proteasome catalytic activities by G4 and its analogs. In the 96-well format assays involving a 100/4 L total volume, 20S proteasomes (0.5/4 g/mL) were incubated with G4, its analogs, or reference compounds (e.g., carfilzomib) in assay buffer (20 mM Tris-HCl, 0.5 mM EDTA, 0.035% SDS) for 30 min at room temperature. Reactions were initiated by the addition of individual subunit-selective fluorogenic substrates containing the AMC (7-amino-4-methylcoumarin) group. The following substrates were used: for /31 activity, Ac-nLPnLD-AMC (100/4M); for /32 and /32i activity, Boc-LRR-AMC (200/4M); for /35 activity, Ac-WLA-AMC (20/4M); for /31i activity, Ac-PAL-AMC (100/4M); for /35i activity, Ac-ANW-AMC (100/4M). The fluorescence of liberated AMC was measured over a period of 90 min at room temperature using excitation and emission wavelengths of 360 and 460 nm on a SpectraMax M5 fluorescence plate reader (Molecular Devices).
In comparison, modifications at the ring D had little impact on the activity of G4. […] The mechanism by which these compounds enhance the CT-L activity of proteasome is unclear at this time.

[9] = Microsomal stability assay, mouse; assay type: in vitro ADME; details: mouse liver microsomes, compared to carfilzomib and bortezomib
Method: (§5) The metabolic stability profiles of G4-1 and reference compounds (carfilzomib and bortezomib) were assessed by monitoring the disappearance of the test compounds in the presence of liver microsomes. A typical incubation mixture (100 sL total volume) for metabolic stability studies contained 1 sM test compounds, 0.5 mg/mL microsomal protein (pooled Balb/c mouse liver microsomes prepared in-house or BD UltraPool human liver microsomes), 100 mM Tris-HCl buffer (pH 7.4), and NADPH-generating system (5 mM isocitric acid, 0.2 unit/mL isocitric acid dehydrogenase, 5 mM magnesium chloride, 1 mM NADP^+). After preincubation at 37° C. for 5 min, the reactions were started by addition of NADP^+ and further incubated for another 0, 5, 10, 20 min. For control experiments, NADPH and/or liver microsomes were omitted from these incubations. The reactions were terminated by adding 100 sL of ice-cold acetonitrile containing phenytoin (1 sM) as internal standard and keeping on ice for 30 min, followed by centrifugation at 16 100 g for 15 min to obtain the supernatant. Aliquots (5 sL) were then analyzed for substrate disappearance using liquid chromatography-tandem mass spectrometry (Agilent 1200 HPLC instrument interfaced with Applied Biosystems Qtrap 3200) equipped with an electrospray ion source.

LNCaP tumors [10] = details: mouse, in vivo
Method: as §6, §7

[11] = Microsomal stability assay, human; assay type: in vitro ADME; details: human liver microsomes, compared to carfilzomib and bortezomib
Method: as §5

[12] = Phase II clinical trials; cited from earlier work

Row | SMILES | inhibition of proteasomal activity after preincubation [1] | inhibition of proteasomal CT-L activity of cell extracts [2] | activity against the T-L activity of cell extracts [3] | anticancer effect in cell line models with acquired resistance [4] | inhibition of proteasomal C-L activity of cell extracts [5] | anticancer activity against cancer cell lines [6] | tumor growth in vivo (LNCaP tumors [7]) | inhibitory potency against the CT-L activity of purified proteasomes [8] | metabolic stability [9] | systemic toxicity in mice (LNCaP tumors [10]) | metabolic stability [11] | body weight over the course of treatment (LNCaP tumors [7]) | median duration of response [12] | overall survival [12] | response rate [12]
1 | Cc1ccc(OS(=O)(=O)c2cccc(C(F)(F)F)c2)c(-c2cc(-c3ccccc3)n(CC(=O)N[C@@H]3CCNC3)n2)c1 [G4-1] | nearly complete inhibition | effectively inhibit | no activity | not negatively impacted | effectively inhibit | good anticancer activity | effectively suppressed tumor growth | one of the most potent inhibitors | excellent metabolic stability | without apparent systemic toxicity | excellent metabolic stability | – | – | – | –
2 | CC(C)C[C@H](NC(=O)[C@H](CCc1ccccc1)NC(=O)CN1CCOCC1)C(=O)N[C@@H](Cc1ccccc1)C(=O)N[C@@H](CC(C)C)C(=O)[C@@]1(C)CO1 [carfilzomib] | – | – | – | – | – | – | – | – | – | – | – | weight loss | 7.8 months | ~16 months | under 25%
